US20010007675A1, “Cosmetic and dermatological compositions containing aminoalchohol derivatives containing a urea functional group and uses thereof” (L'OREAL, priority 1996, published 2001)

Tests used:
[1] = Measurement of the imperceptible water loss (IWL) with an evaporimeter (Servomed); details: compound at 1% in dichloromethane/methanol (2/1 v/v), applied on delipidated stratum corneum; measured 20 hours after application
Description: Measurement of the imperceptible water loss (IWL)
This measurement was carried out using an evaporimeter (Servomed) which quantitatively determines the evaporation of water, that is transportation of water by diffusion, from a stratum corneum sample which seals a cylindrical capsule containing water, the whole assembly being placed in a chamber with controlled relative temperature and controlled relative humidity.
Sensors made it possible to measure the partial vapour pressure of water at two points situated at different distances from the sample.
The partial vapour pressure of water gradient between the two points was thus determined and therefore the degree of evaporation in accordance with Fick's law.
This measurement is carried out for:
The compounds were prepared in the proportion of 1% in a dichloromethane/methanol (2/1 v/v) mixture and then applied on pieces of delipidated stratum comeum.
The imperceptible water loss (IWL) for each compound was measured 20 hours after application.

melting point [°C] | SMILES | I.W.L. (imperceptible water loss) [1]
– | CCCCCCCCCCCC(=O)N(C)C[C@H](O)[C@@H](O)[C@H](O)[C@H](O)CO [Reference A, N-dodecanoyl-N-methyl-D-glucamine] | −11 +/− 3
111.4 | CCCCCCCCNC(=O)N(C)C[C@H](O)[C@@H](O)[C@H](O)[C@H](O)CO [Example 8, N-octylaminocarbonyl-N-methyl-D-glucamine] | –
– | CCCCCCCCCCCCOC(=O)N(C)C[C@H](O)[C@@H](O)[C@H](O)[C@H](O)CO [Reference B, N-dodecyloxycarbonyl-N-methyl-D-lucamine] | −9 +/− 2
116.8 | CCCCCCCCCCCCNC(=O)N(C)C[C@H](O)[C@@H](O)[C@H](O)[C@H](O)CO [Example 1, N-dodecylaminocarbonyl-N-methyl-D-glucamine] | −21 +/− 2
